# Measurements as given in PubChem BioAssay AID2060501 (Molecular Pharmacology Branch, DTP, NCI, 2025).
# “And” between values parts separate entries of the source, which are not always exact repeats. Identical values can stand only once.
# System: 282377-053-R-J1-PDC complex spheroids, viability
# Test: Anticancer human tumor 282377-053-R-J1-PDC patient-derived colon adenocarcinoma cell line growth inhibition [GQUAD]
# Conditions: for viability, T/C: stronger effect = lower value
# Source text: DNA G-quadruplex Stabilizer Agents in Combinations in Complex Spheroids
# A high-throughput screen of multi-cell type tumor spheroids was designed to identify active combinations of DNA G-quadruplex stabilizer agents and targeted small molecules. Complex spheroids include a stromal component modeled by human endothelial cells (HUVEC) and fibroblasts modeled by human mesenchymal stem cells (MSCs). The concentration ranges selected for each drug and investigational agent were based upon clinically achievable concentrations if the clinical Cmax of the agent was known.
# Compounds. The drugs and investigational agents: pidnarulex (CX-5461; NSC782164), APTO-253 (NSC789042), BRACO-19 (NSC847499), peposertib (NSC802822), ceralasertib (NSC780249), elimusertib (NSC800525), camonsertib (NSC841442), AZD-1390 (NSC803789), olaparib (NSC753686), talazoparib (NSC767125), ART-558 (NSC835418), sotorasib (NSC818433), MRTX-1133 (NSC836407), SN-38 (NSC673596), topotecan (NSC609699), etoposide (NSC141540), doxorubicin (NSC123127), gemcitabine (NSC613327), 5-fluorouracil (NSC19893), paclitaxel (NSC125973), vemurafenib (NSC761431), panobinostat (NSC761190), R-306465 (JNJ-16241199; NSC773264), adavosertib (NSC754352), TP-3654 (NSC805149), carboplatin (NSC241240), KSQ-4279 (NSC840948), and staurosporine (NSC755774) were obtained from the National Cancer Institute (NCI) Developmental Therapeutics Program Chemical Repository (34). The FDA-approved anticancer drug set is available from the NCI Developmental Therapeutics Program. […] The stock solutions were prepared in dimethyl sulfoxide (DMSO, Sigma-Aldrich, St. Louis, MO, cat. D2650) at 800-fold the tested concentration and stored at -70 degrees C prior to their use. All drugs and investigational agents were tested over a range starting from a high concentration at or near the clinical Cmax and decreasing in half-log increments. If the clinical Cmax for an agent had not been determined, the highest concentration tested was 10 microM.
# 2.3 Cell Culture. All cells were maintained in an incubator at 37 degrees C and 5% CO2 with 95% humidity. The PDC lines were cultured according to standard operating procedures established by the NCI PDMR. All PDCs were thawed and cultured in Matrigel-coated flasks prepared with a working solution of 1X Ham's F-12 nutrient mix, without supplementation (Invitrogen, cat. 11765054), 100 U/mL penicillin-streptomycin (Invitrogen, cat. 15140122), and 2.5% Matrigel (Corning Inc., cat. 354248) for the first three passages. The 857933-349-R-J2-PDC line was cultured in 6C/Colon 1B media, which includes advanced DMEM/F-12 (Thermo Fisher Scientific, cat. 12634028), 10 mM HEPES (Thermo Fisher Scientific, cat. 15630080), 1X GlutaMAX supplement (Thermo Fisher Scientific, cat. 35050061), 0.1 mg/mL primocin (InvivoGen, cat. ant-pm-2), 10% defined fetal bovine serum, heat inactivated (HyClone Laboratories Inc., cat. SH30070.03HI), 50% L-WRN conditioned media (ATCC, cat. CRL-3276), 1.25 mM N-Acetyl-L-cysteine (Sigma-Aldrich, cat. A9165), 10 mM nicotinamide (Sigma-Aldrich, cat. N0636), 1X B-27 supplement (Thermo Fisher Scientific, cat. 17504044), 1X N-2 supplement (Thermo Fisher Scientific, cat. 17502048), 10 microM Y-27632 dihydrochloride (Tocris Bioscience, cat. 1254), and 50 ng/mL human EGF recombinant protein (Thermo Fisher Scientific, cat. PHG0311). The 485176-168-R4-J1-PDC line was cultured in Panc media, which includes all 6C/Colon 1B media components plus 100 ng/mL human FGF-10 (Thermo Fisher Scientific, cat. 100-26), 500 nM SB-431542 (Selleckchem, cat. S1067), and gastrin (Tocris, cat. 3006).
# […]
# 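Also: spheroids exposed to compounds for 7 days before readout.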
# 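For viability, T/C in this document: percent of vehicle DMSO control viability with 100% = untreated-like growth.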
structure (smiles),measurement,setting,value
O=C(c1cc(Cc2n[nH]c(=O)c3ccccc23)ccc1F)N1CCN(C(=O)C2CC2)CC1,"viability, T/C",compound 0.0316 µM,98.7% and 97.4% and 108%
same,"viability, T/C",compound 0.1 µM,111% and 100% and 110%
same,"viability, T/C",compound 0.316 µM,100% and 98.7% and 102%
same,"viability, T/C",compound 1 µM,93.8% and 105% and 109%
same,"viability, T/C",compound 3.16 µM,116% and 100% and 111%
same,"viability, T/C",compound 10 µM,106% and 82.9% and 90.7%
same,IC50,curve of compound,> 10 µM
CC(C)n1c(=O)n(C)c2cnc3cc(F)c(-c4ccc(OCCCN5CCCCC5)nc4)cc3c21,"viability, T/C",compound 0.0316 µM,104% and 100% and 77.6%
same,"viability, T/C",compound 0.1 µM,107% and 87.5% and 98.7%
same,"viability, T/C",compound 0.316 µM,94.4% and 95.6% and 105%
same,"viability, T/C",compound 1 µM,94.8% and 106% and 92.8%
same,"viability, T/C",compound 3.16 µM,102% and 97.1% and 111%
same,"viability, T/C",compound 10 µM,113% and 80.3% and 102%
same,IC50,curve of compound,> 10 µM
COc1cccc2c1C(=O)c1c(O)c3c(c(O)c1C2=O)CC(O)(C(=O)CO)CC3OC1CC(N)C(O)C(C)O1 (stereo not given) + Cc1[nH]c2ccc(F)cc2c1-c1nc2c3cccnc3c3ncccc3c2[nH]1,IC50,"curve of first compound, second compound 0.0316 µM",1.35 µM
same,IC50,"curve of first compound, second compound 0.1 µM",1.32 µM
same,IC50,"curve of first compound, second compound 0.316 µM",1.08 µM
same,IC50,"curve of first compound, second compound 1 µM",0.991 µM
same,IC50,"curve of first compound, second compound 3.16 µM",0.222 µM
same,IC50,"curve of first compound, second compound 10 µM",< 0.0316 µM
same,"viability, T/C","second compound 0.0316 µM, first compound 0.0316 µM",108%
same,"viability, T/C","second compound 0.0316 µM, first compound 0.1 µM",99.2%
same,"viability, T/C","second compound 0.0316 µM, first compound 0.316 µM",86.4%
same,"viability, T/C","second compound 0.0316 µM, first compound 1 µM",64.1%
same,"viability, T/C","second compound 0.0316 µM, first compound 3.16 µM",18.5%
same,"viability, T/C","second compound 0.0316 µM, first compound 10 µM",1.16%
same,"viability, T/C","second compound 0.1 µM, first compound 0.0316 µM",94.4%
same,"viability, T/C","second compound 0.1 µM, first compound 0.1 µM",114%
same,"viability, T/C","second compound 0.1 µM, first compound 0.316 µM",81.3%
same,"viability, T/C","second compound 0.1 µM, first compound 1 µM",64%
same,"viability, T/C","second compound 0.1 µM, first compound 3.16 µM",16.8%
same,"viability, T/C","second compound 0.1 µM, first compound 10 µM",1.17%
same,"viability, T/C","second compound 0.316 µM, first compound 0.0316 µM",98.1%
same,"viability, T/C","second compound 0.316 µM, first compound 0.1 µM",129%
same,"viability, T/C","second compound 0.316 µM, first compound 0.316 µM",83.4%
same,"viability, T/C","second compound 0.316 µM, first compound 1 µM",54%
same,"viability, T/C","second compound 0.316 µM, first compound 3.16 µM",16.8%
same,"viability, T/C","second compound 0.316 µM, first compound 10 µM",0.84%
same,"viability, T/C","second compound 1 µM, first compound 0.0316 µM",106%
same,"viability, T/C","second compound 1 µM, first compound 0.1 µM",116%
same,"viability, T/C","second compound 1 µM, first compound 0.316 µM",85.3%
same,"viability, T/C","second compound 1 µM, first compound 1 µM",47.3%
same,"viability, T/C","second compound 1 µM, first compound 3.16 µM",22%
same,"viability, T/C","second compound 1 µM, first compound 10 µM",0.99%
same,"viability, T/C","second compound 3.16 µM, first compound 0.0316 µM",78%
same,"viability, T/C","second compound 3.16 µM, first compound 0.1 µM",74.3%
same,"viability, T/C","second compound 3.16 µM, first compound 0.316 µM",32%
same,"viability, T/C","second compound 3.16 µM, first compound 1 µM",29.8%
same,"viability, T/C","second compound 3.16 µM, first compound 3.16 µM",9.5%
same,"viability, T/C","second compound 3.16 µM, first compound 10 µM",0.94%
same,"viability, T/C","second compound 10 µM, first compound 0.0316 µM",36.5%
same,"viability, T/C","second compound 10 µM, first compound 0.1 µM",47.2%
same,"viability, T/C","second compound 10 µM, first compound 0.316 µM",23.8%
same,"viability, T/C","second compound 10 µM, first compound 1 µM",18.4%
same,"viability, T/C","second compound 10 µM, first compound 3.16 µM",7.13%
same,"viability, T/C","second compound 10 µM, first compound 10 µM",0.99%
COc1ncnc(C2CC2)c1-c1ncc2cnn(Cc3ccc(-c4nc(C(F)(F)F)cn4C(C)C)cc3)c2n1,"viability, T/C",compound 0.0316 µM,101% and 109% and 104%
same,"viability, T/C",compound 0.1 µM,102% and 106% and 78.5%
same,"viability, T/C",compound 0.316 µM,102% and 82.9% and 81.3%
same,"viability, T/C",compound 1 µM,109% and 91.4% and 78.3%
same,"viability, T/C",compound 3.16 µM,106% and 86.4% and 75.8%
same,IC50,curve of compound,> 10 µM and 5.29 µM
Nc1ccn(C2OC(CO)C(O)C2(F)F)c(=O)n1 (stereo not given),"viability, T/C",compound 0.0316 µM,97% and 108% and 101%
same,"viability, T/C",compound 0.1 µM,76% and 78.1% and 78.7%
same,"viability, T/C",compound 0.316 µM,37.7% and 50.4% and 35.4%
same,"viability, T/C",compound 1 µM,34.4% (2×) and 26.7%
same,"viability, T/C",compound 3.16 µM,25.4% and 37.8% and 20.9%
same,"viability, T/C",compound 10 µM,18.3% and 20.1% and 17.3%
same,IC50,curve of compound,0.235 µM and 0.382 µM and 0.219 µM
Cc1[nH]c2ccccc2c1CCNCc1ccc(/C=C/C(=O)NO)cc1,"viability, T/C",compound 0.000999 µM,108% and 110% and 106%
same,"viability, T/C",compound 0.00316 µM,88.2% and 101% and 95.5%
same,"viability, T/C",compound 0.00999 µM,84.7% and 96.6% and 98.5%
same,"viability, T/C",compound 0.0316 µM,97.4% and 118% and 105%
same,"viability, T/C",compound 0.0999 µM,115% and 98.6% and 72.2%
same,IC50,curve of compound,> 0.316 µM and 0.185 µM and 0.145 µM
